We go through 3 compounds from patent publication US20100129343A1, “Use Of A Compound For Enhancing The Expression Of Membrane Proteins On The Cell Surface” (Axentis Pharma AG, priority 2004, published 2010).

Common to all, as to assay type: cell-based
Data set [1] relates to CFTR-ΔF508. The experiment in a line: Immunoblot for GFP-tagged CFTR-ΔF508 expressed in HEK293 cells. As to conditions: 16 h, endoglycosidase H treated extract. As to the method: HEK293 cells (1*10^6 cells) were transfected with plasmids encoding CFTR or CFTR-ΔF508 (GFP-tagged) and/or co-transfected with effector plasmids. After 16h, the cells were treated with the varying concentrations of compounds. After 24h, the cells were harvested in phosphate-buffered saline, lysed by a freeze-thaw cycle and homogenized by sonication. The homogenate was resuspended in reducing Laemmli sample buffer (50 mM Tris.HCl, pH 6.8, 20% glycerol, 0.1% bromphenol blue, 2% SDS and 20 mM dithiothreitol); aliquots (15% of the original culture) were resolved on a denaturing polyacrylamide gel (monomer concentration in the stacking gel and in the running gel 4 and 8% respectively) and electrophoretically transferred to a nitrocellulose membrane. Immunodetection was done with an antiserum directed against GFP as the primary antibody and an anti-rabbit IgG coupled to horseradish peroxidase as the secondary antibody.
In a first example, Membranes from transfected cells were prepared and immunoblotted for GFP-tagged CFTR or CFTR-ΔF508, respectively (by using an antibody directed against the fluorescent protein).
The membrane extract was also treated endoglycosidase H. The rationale for this experiment is as follows: membrane proteins are core glycosylated in the endoplasmatic reticulum. Core gylcosylation is sensitive to endoglycosidase H. If the protein has reached the Golgi (and then trafficked to the plasma membrane), it acquires additional sugar moieties and becomes resistant to endoglycosidase H. It is evident from lane 3 in FIG. 6 that endoglycosidase H treatment reduces the apparent size of CFTR; thus, the bulk of the protein is still in the ER. The following lanes examine the expression of CFTR-ΔF508 (all extracts were treated with endoglycosidase H): lane 4 is the control, that is cells expressing CFTR-ΔF508; in lanes 5, 6, 7 and 8 cells expressing CFTR-ΔF508 were treated overnight (i.e. for 16 h) with 100 nM MG132, 20 μM kifunensine, 1 μM and 100 nM bortezomib, respectively.

In data set [2] the target is T1, A2A-receptor (Rattus norvegicus, UniProt P30543).
T1 construct: PC12 cells (that endogenously express the A2A-receptor); endogenous in cells; host or cells: PC12 (rat pheochromocytoma), membranes
The experiment in a line: [3H]ZM241385 saturation binding to membranes from PC12 cells (endogenous A2A-receptor). As to conditions: 100 μM chloroquine for 3h. On the procedure:
Membranes were prepared from PC12 cells, which had been incubated in the presence or in the absence of 50 μM MG132 or 100 μM chloroquine for 3h, and were incubated in buffer containing the indicated concentrations of [^3H]ZM241385 in the presence of 100 μM GTPγS.
Membranes (100 μg/assay) that had been prepared from PC12 cells or HEK293 cells transiently transfected with the appropriate plasmids were incubated in a final volume of 0.3 ml containing 50 mM Tris.HCl (pH 8.0), 1 mM EDTA, 5 mM MgCl2, 8 μg/ml adenosine deaminase and concentrations of [^3H]ZM241385 (specific activity ˜20 Ci/mmol) covering the range of 0.2 to 20 nM in the presence of 100 μM GTPγS (Klinger et al., 2002). After 60 min at room temperature, the reaction was terminated by rapid filtration over glass fiber filters. Nonspecific binding was determined in the presence of 10 μM XAC and amounted to 40% at the highest concentration of [^3H]ZM241385. The data points were fitted by non-linear regression to the equation describing a rectangular hyperbola. Assays were performed in duplicate.

Data set [3] concerns CFTR-ΔF508. Put plainly: FACS monitoring of GFP-tagged CFTR-ΔF508 expression in HEK293 cells. On the procedure: (§1) Cultured HEK293 cells were transfected with plasmids encoding CFTR or CFTR-ΔF508 (GFP-tagged) and/or co-transfected with plasmids encoding USP4 (or an appropriate control plasmid) by using the CaPO4-precipitation method. Sixteen hours after transfection the cells were treated with varying concentrations of compounds. At a specific time point (here 24 h) the cells are trypsinized, fixed in ethanol, permeabilized and stained with propidium iodide (PI). The stained cells are subjected to FACS analysis
Because CFTR is tagged with a fluorescent protein, expression in individual cells can be monitored by fluorescence activated cell sorting (FACS). By contrast with fluorescence microscopy (where individual cells are picked), FACS allows to survey the entire cell population. In addition, FACS has the advantage that it allows for reasonable sample throughput; finally, automation and scale-up is readily possible. […]
The original data set is shown on the right hand side of the figures, respectively (see e.g. FIG. 7c): the x-axis is the propidium iodide fluorescence (note that the scale is linear). The y-axis is the GFP-fluorescence (=fluorescence associated with CFTR; note that the scale is logarithmic) and each dot corresponds to a cell. […]

The test system of data set [4] is HEK293 cells. Put plainly: FACS propidium iodide staining: cell cycle distribution / apoptosis of HEK293 cells. As to the method:
as §1
Transiently transfected HEK293 cells were fixed in ethanol 24 h after transfection as mentioned above and then stained with propidium iodide to label the DNA: the rationale was to examine the distribution of cells in the cell cycle (=to see if the expression of CFTR or of CFTR-ΔF508 was toxic or if the compounds employed killed the cells/drove them into apoptosis).
One can plot the cell counts against the propidium iodide fluorescence of the transfected cells (such as shown in, for example, FIG. 7b): This gives a peak of cells (denoted by M1) that have a 2n content of DNA (G1-cells), a shoulder of cells that have a DNA content of larger than 2n (denoted by M3 and representing cells that are in S-phase) and a second peak of cells that have a DNA content of 4n (denoted by M2 and representing cells in G2 and M-phase).

“Also recorded” adds a separate entry of the source.

T1 sequence (P30543 whole entry): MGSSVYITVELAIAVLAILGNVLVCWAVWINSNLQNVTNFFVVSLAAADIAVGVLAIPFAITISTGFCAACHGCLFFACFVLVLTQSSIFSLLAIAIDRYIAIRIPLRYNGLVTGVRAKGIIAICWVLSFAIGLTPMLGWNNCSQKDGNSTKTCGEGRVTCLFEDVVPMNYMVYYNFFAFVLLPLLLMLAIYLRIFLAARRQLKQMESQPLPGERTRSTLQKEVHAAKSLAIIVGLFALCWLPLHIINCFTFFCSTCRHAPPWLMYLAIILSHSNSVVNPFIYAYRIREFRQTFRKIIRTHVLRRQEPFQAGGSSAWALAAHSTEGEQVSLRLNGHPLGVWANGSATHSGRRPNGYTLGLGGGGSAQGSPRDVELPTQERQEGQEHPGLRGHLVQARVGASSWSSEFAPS

`O=C1N[C@@H]2[C@@H](O)[C@@H](O)[C@H](O)[C@@H](CO)N2C1=O` [kifunensine]: the “accumulation of CFTR-ΔF508 (intensity of staining vs control lane)” value in data set [1] (20 μM kifunensine) is “led to the accumulation of CFTR-ΔF508”.
For `CCN(CC)CCCC(C)Nc1ccnc2cc(Cl)ccc12` (stereo not drawn) [choloroquine, chloroquine], the A2A-receptor levels result in data set [2] is reported as “did not affect the A2A-receptor levels”.
Regarding `CC(C)C[C@H](NC(=O)[C@H](Cc1ccccc1)NC(=O)c1cnccn1)B(O)O` [Bortezomib, N-(2-pyrazine)carbonyl-L-phenylalanine-L-leucine-boronic acid], the “accumulation of CFTR-ΔF508 (intensity of staining vs control lane)” value was “led to the accumulation of CFTR-ΔF508; also recorded: more effective than 1 μM bortezomib” in data set [1] (100 nM bortezomib) and “led to the accumulation of CFTR-ΔF508” in data set [1] (1 μM bortezomib). The values for the CFTR-ΔF508-associated fluorescence result in data set [3] (10 nM bortezomib) and in data set [3] (100 nM bortezomib) were “expression of CFTR is increased; also recorded: substantially increases the level of CFTR-ΔF508” and “expression of CFTR is increased”, respectively. For the same compound, the cell cycle distribution entry in data set [4] (10 nM bortezomib, CFTR-ΔF508 expressing cells) is listed as “essentially the same as the one shown in control cells”. Further, the “peak of the G1-cells (M1)” value is “greatly reduced” in data set [4] (100 nM Bortezomib, CFTR-ΔF508 expressing cells) and “greatly reduced” in data set [4] (1 μM Bortezomib, CFTR-ΔF508 expressing cells). In addition, the “number of cells with low propidium iodide fluorescence (apoptotic)” value in data set [4] (100 nM bortezomib) and in data set [4] (1 μM Bortezomib) was “number of cells with low propidium iodide fluorescence increases” each time. In addition, the “cell mortality / apoptosis, general statement” value in data set [4] (within the therapeutic window (Bortezomib), very small dosage (MG132)) is on record as “no increased cell mortality is observed”.
